Several values for one entry are separate records, joined by “and”; a condition that tells them apart may be missing. Equal values may be shown once. Toxic doses and inconclusive results are not listed.
Tested on: CD2F1 mice, L1210 leukemia ip, survival T/C
Assay: NCI In Vivo Anticancer Drug Screen. Data for tumor model L1210 Leukemia (intraperitoneal) in CD2F1 (CDF1) mice
Details: higher = longer survival
In short: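 Compound-dosed mice with transplantable tumor versus matched vehicle controls; endpoint ratio T/C reported.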

O=C1NC(=O)C2C3C=CC(C12)C1C2C(=O)NC(=O)C2C31 (stereo not drawn)
T/C (endpoint: mean survival time, dose: 12.5 mg/kg/injection, schedule: Q01DX009 (ip), vehicle: saline with Tween-80): 115 % of control
T/C (endpoint: mean survival time, dose: 12.5 mg/kg/injection, schedule: Q01DX009 (oral), vehicle: saline with Tween-80): 100 % of control
T/C (endpoint: mean survival time, dose: 25.0 mg/kg/injection, schedule: Q01DX009 (oral), vehicle: saline with Tween-80): 96 % of control
T/C (endpoint: mean survival time, dose: 50.0 mg/kg/injection, schedule: Q01DX009 (ip), vehicle: saline with Tween-80): 164 % of control
T/C (endpoint: mean survival time, dose: 50.0 mg/kg/injection, schedule: Q01DX009 (oral), vehicle: saline with Tween-80): 101 % of control
T/C (endpoint: mean survival time, dose: 100.0 mg/kg/injection, schedule: Q01DX009 (ip), vehicle: saline with Tween-80): 188 % of control
T/C (endpoint: mean survival time, dose: 100.0 mg/kg/injection, schedule: Q01DX009 (oral), vehicle: saline with Tween-80): 104 % of control
T/C (endpoint: mean survival time, dose: 200.0 mg/kg/injection, schedule: Q01DX009 (oral), vehicle: saline with Tween-80): 101 % of control
T/C (endpoint: mean survival time, dose: 400.0 mg/kg/injection, schedule: Q01DX009 (oral), vehicle: saline with Tween-80): 111 % of control
T/C (endpoint: median survival time, dose: 2.6 mg/kg/injection, schedule: Q03HX024 (ip), vehicle: clinical formulation): 110 % of control
T/C (endpoint: median survival time, dose: 3.12 mg/kg/injection, schedule: Q01DX009 (ip), vehicle: clinical formulation): 106 % of control
T/C (endpoint: median survival time, dose: 3.12 mg/kg/injection, schedule: Q01DX009 (ip), vehicle: saline with Tween-80): 108 % of control
T/C (endpoint: median survival time, dose: 6.0 mg/kg/injection, schedule: Q03HX027 (ip), vehicle: saline): 112 % of control
T/C (endpoint: median survival time, dose: 6.25 mg/kg/injection, schedule: Q01DX009 (ip), vehicle: clinical formulation): 108 % of control
T/C (endpoint: median survival time, dose: 6.9 mg/kg/injection, schedule: Q01DX009 (ip), vehicle: clinical formulation): 102 % of control
T/C (endpoint: median survival time, dose: 7.8 mg/kg/injection, schedule: Q03HX008 (ip), vehicle: clinical formulation): 162 % of control
T/C (endpoint: median survival time, dose: 10.4 mg/kg/injection, schedule: Q03HX024 (ip), vehicle: clinical formulation): 162 % of control
T/C (endpoint: median survival time, dose: 11.8 mg/kg/injection, schedule: Q01DX009 (ip), vehicle: water): 108 % of control
T/C (endpoint: median survival time, dose: 12.5 mg/kg/injection, schedule: Q01DX005 (ip), vehicle: clinical formulation): 100 % of control
T/C (endpoint: median survival time, dose: 12.5 mg/kg/injection, schedule: Q01DX005 (ip), vehicle: other): 101 % of control and 106 % of control
T/C (endpoint: median survival time, dose: 12.5 mg/kg/injection, schedule: Q01DX005 (iv), vehicle: clinical formulation): 108 % of control
T/C (endpoint: median survival time, dose: 12.5 mg/kg/injection, schedule: Q01DX005 (iv), vehicle: other): 103 % of control and 104 % of control
T/C (endpoint: median survival time, dose: 12.5 mg/kg/injection, schedule: Q01DX009 (ip), vehicle: clinical formulation): 112 % of control
T/C (endpoint: median survival time, dose: 12.5 mg/kg/injection, schedule: Q01DX009 (ip), vehicle: saline with Tween-80): 116 % of control
T/C (endpoint: median survival time, dose: 12.5 mg/kg/injection, schedule: Q01DX009 (oral), vehicle: other): 100 % of control
T/C (endpoint: median survival time, dose: 13.8 mg/kg/injection, schedule: Q01DX009 (ip), vehicle: clinical formulation): 101 % of control
T/C (endpoint: median survival time, dose: 14.0 mg/kg/injection, schedule: Q01DX009 (ip), vehicle: water): 117 % of control
T/C (endpoint: median survival time, dose: 16.7 mg/kg/injection, schedule: Q03HX027 (ip), vehicle: saline): 152 % of control
T/C (endpoint: median survival time, dose: 18.0 mg/kg/injection, schedule: Q01DX009 (ip), vehicle: clinical formulation): 110 % of control
T/C (endpoint: median survival time, dose: 18.0 mg/kg/injection, schedule: Q01DX009 (ip), vehicle: saline): 103 % of control
T/C (endpoint: median survival time, dose: 18.0 mg/kg/injection, schedule: Q01DX009 (ip), vehicle: water): 113 % of control
T/C (endpoint: median survival time, dose: 19.7 mg/kg/injection, schedule: Q01DX009 (ip), vehicle: water): 107 % of control
T/C (endpoint: median survival time, dose: 20.8 mg/kg/injection, schedule: Q03HX024 (ip), vehicle: clinical formulation): 114 % of control
T/C (endpoint: median survival time, dose: 20.8 mg/kg/injection, schedule: Q04DX003 (ip), vehicle: clinical formulation): 121 % of control
T/C (endpoint: median survival time, dose: 23.3 mg/kg/injection, schedule: Q01DX009 (ip), vehicle: water): 150 % of control
T/C (endpoint: median survival time, dose: 25.0 mg/kg/injection, schedule: Q01DX001 (iv), vehicle: other): 100 % of control
T/C (endpoint: median survival time, dose: 25.0 mg/kg/injection, schedule: Q01DX005 (ip), vehicle: clinical formulation): 114 % of control
T/C (endpoint: median survival time, dose: 25.0 mg/kg/injection, schedule: Q01DX005 (ip), vehicle: other): 108 % of control
T/C (endpoint: median survival time, dose: 25.0 mg/kg/injection, schedule: Q01DX005 (iv), vehicle: other): 101 % of control and 109 % of control
T/C (endpoint: median survival time, dose: 25.0 mg/kg/injection, schedule: Q01DX005 (oral), vehicle: other): 98 % of control
T/C (endpoint: median survival time, dose: 25.0 mg/kg/injection, schedule: Q01DX009 (ip), vehicle: clinical formulation): 122 % of control
T/C (endpoint: median survival time, dose: 25.0 mg/kg/injection, schedule: Q01DX009 (oral), vehicle: other): 98 % of control
T/C (endpoint: median survival time, dose: 27.7 mg/kg/injection, schedule: Q01DX009 (ip), vehicle: clinical formulation): 154 % of control
T/C (endpoint: median survival time, dose: 27.8 mg/kg/injection, schedule: Q03HX027 (ip), vehicle: saline): 183 % of control
T/C (endpoint: median survival time, dose: 30.0 mg/kg/injection, schedule: Q01DX009 (ip), vehicle: clinical formulation): 166 % of control
T/C (endpoint: median survival time, dose: 30.0 mg/kg/injection, schedule: Q01DX009 (ip), vehicle: water): 186 % of control
T/C (endpoint: median survival time, dose: 32.9 mg/kg/injection, schedule: Q01DX009 (ip), vehicle: water): 226 % of control
T/C (endpoint: median survival time, dose: 38.9 mg/kg/injection, schedule: Q01DX009 (ip), vehicle: water): 200 % of control
T/C (endpoint: median survival time, dose: 46.3 mg/kg/injection, schedule: Q03HX027 (ip), vehicle: saline): 88 % of control
T/C (endpoint: median survival time, dose: 50.0 mg/kg/injection, schedule: Q01DX001 (iv), vehicle: other): 106 % of control
T/C (endpoint: median survival time, dose: 50.0 mg/kg/injection, schedule: Q01DX001 (oral), vehicle: other): 100 % of control
T/C (endpoint: median survival time, dose: 50.0 mg/kg/injection, schedule: Q01DX005 (ip), vehicle: clinical formulation): 198 % of control
T/C (endpoint: median survival time, dose: 50.0 mg/kg/injection, schedule: Q01DX005 (iv), vehicle: clinical formulation): 174 % of control
T/C (endpoint: median survival time, dose: 50.0 mg/kg/injection, schedule: Q01DX005 (iv), vehicle: other): 185 % of control
T/C (endpoint: median survival time, dose: 50.0 mg/kg/injection, schedule: Q01DX005 (oral), vehicle: other): 101 % of control
T/C (endpoint: median survival time, dose: 50.0 mg/kg/injection, schedule: Q01DX009 (ip), vehicle: clinical formulation): 176 % of control and 203 % of control
T/C (endpoint: median survival time, dose: 50.0 mg/kg/injection, schedule: Q01DX009 (ip), vehicle: saline with Tween-80): 246 % of control
T/C (endpoint: median survival time, dose: 50.0 mg/kg/injection, schedule: Q01DX009 (ip), vehicle: saline): 160 % of control
T/C (endpoint: median survival time, dose: 50.0 mg/kg/injection, schedule: Q01DX009 (ip), vehicle: water): 256 % of control
T/C (endpoint: median survival time, dose: 50.0 mg/kg/injection, schedule: Q01DX009 (oral), vehicle: other): 109 % of control
T/C (endpoint: median survival time, dose: 54.8 mg/kg/injection, schedule: Q01DX009 (ip), vehicle: water): 119 % of control
T/C (endpoint: median survival time, dose: 55.5 mg/kg/injection, schedule: Q01DX009 (ip), vehicle: clinical formulation): 284 % of control
T/C (endpoint: median survival time, dose: 55.5 mg/kg/injection, schedule: Q01DX009 (oral), vehicle: clinical formulation): 108 % of control
T/C (endpoint: median survival time, dose: 62.5 mg/kg/injection, schedule: Q01DX001 (iv), vehicle: clinical formulation): 151 % of control
T/C (endpoint: median survival time, dose: 64.8 mg/kg/injection, schedule: Q01DX009 (ip), vehicle: water): 268 % of control
T/C (endpoint: median survival time, dose: 83.3 mg/kg/injection, schedule: Q01DX009 (ip), vehicle: clinical formulation): 112 % of control
T/C (endpoint: median survival time, dose: 83.3 mg/kg/injection, schedule: Q01DX009 (ip), vehicle: saline): 106 % of control
T/C (endpoint: median survival time, dose: 83.3 mg/kg/injection, schedule: Q01DX009 (ip), vehicle: water): 97 % of control
T/C (endpoint: median survival time, dose: 83.3 mg/kg/injection, schedule: Q04DX003 (ip), vehicle: clinical formulation): 182 % of control
T/C (endpoint: median survival time, dose: 100.0 mg/kg/injection, schedule: Q01DX001 (iv), vehicle: other): 104 % of control
T/C (endpoint: median survival time, dose: 100.0 mg/kg/injection, schedule: Q01DX001 (oral), vehicle: other): 98 % of control
T/C (endpoint: median survival time, dose: 100.0 mg/kg/injection, schedule: Q01DX005 (iv), vehicle: other): 150 % of control and 195 % of control
T/C (endpoint: median survival time, dose: 100.0 mg/kg/injection, schedule: Q01DX005 (oral), vehicle: other): 100 % of control
T/C (endpoint: median survival time, dose: 100.0 mg/kg/injection, schedule: Q01DX009 (oral), vehicle: other): 114 % of control
T/C (endpoint: median survival time, dose: 111.1 mg/kg/injection, schedule: Q01DX009 (ip), vehicle: clinical formulation): 93 % of control
T/C (endpoint: median survival time, dose: 111.1 mg/kg/injection, schedule: Q01DX009 (oral), vehicle: clinical formulation): 121 % of control
T/C (endpoint: median survival time, dose: 125.0 mg/kg/injection, schedule: Q01DX001 (ip), vehicle: clinical formulation): 170 % of control
T/C (endpoint: median survival time, dose: 200.0 mg/kg/injection, schedule: Q01DX001 (iv), vehicle: other): 104 % of control
T/C (endpoint: median survival time, dose: 200.0 mg/kg/injection, schedule: Q01DX001 (oral), vehicle: other): 98 % of control
T/C (endpoint: median survival time, dose: 200.0 mg/kg/injection, schedule: Q01DX005 (ip), vehicle: other): 109 % of control
T/C (endpoint: median survival time, dose: 200.0 mg/kg/injection, schedule: Q01DX005 (iv), vehicle: other): 158 % of control
T/C (endpoint: median survival time, dose: 200.0 mg/kg/injection, schedule: Q01DX005 (oral), vehicle: other): 110 % of control
T/C (endpoint: median survival time, dose: 400.0 mg/kg/injection, schedule: Q01DX001 (iv), vehicle: other): 101 % of control
T/C (endpoint: median survival time, dose: 400.0 mg/kg/injection, schedule: Q01DX001 (oral), vehicle: other): 98 % of control
T/C (endpoint: median survival time, dose: 400.0 mg/kg/injection, schedule: Q01DX005 (oral), vehicle: other): 112 % of control
T/C (endpoint: median survival time, dose: 444.4 mg/kg/injection, schedule: Q01DX009 (oral), vehicle: clinical formulation): 158 % of control
T/C (endpoint: median survival time, dose: 800.0 mg/kg/injection, schedule: Q01DX001 (oral), vehicle: other): 102 % of control
T/C (endpoint: median survival time, dose: 888.8 mg/kg/injection, schedule: Q01DX009 (oral), vehicle: clinical formulation): 184 % of control

Reference: PubChem BioAssay AID256 (DTP/NCI, 2004)
